Reference: ChEMBL document CHEMBL1130990, “High-throughput synthesis and direct screening for the discovery of novel hydrolytic metal complexes” (Bioorg Med Chem Lett, 1998)

Experiments:
[1] = Compound was evaluated for rate enhancement, obtained in the hydrolysis of para-nitrophenyl acetate (Ko = 1.6 x 10 e-4/min); ratio=Kobs/K0; assay type: ADME
[2] = Compound was evaluated for rate enhancement, obtained in the hydrolysis of N-methoxycarbonyl-L-phenylalanine-p-nitrophenylester (Ko = 1.1 x 10 e-3/min); ratio=Kobs/K0; assay type: ADME

SMILES | Ratio [1] | Ratio [2]
[O-][Cl+3]([O-])([O-])[O][Zn][O][Cl+3]([O-])([O-])[O-].c1ccc2c(c1)CNCCNCCNCc1ccccc1OCC(Oc1ccc3ccccc3c1)CO2 | 2.9 | 4.7
COC1COc2ccccc2CNCCNCCNCc2ccccc2OC1.[O-][Cl+3]([O-])([O-])[O][Zn][O][Cl+3]([O-])([O-])[O-] | 2.4 | 3
[O-][Cl+3]([O-])([O-])[O][Zn][O][Cl+3]([O-])([O-])[O-].c1ccc(OC2COc3ccccc3CNCCNCCNCc3ccccc3OC2)cc1 | 2.5 | 3.9
OC1COc2ccccc2CNCCNCCNCc2ccccc2OC1.[O-][Cl+3]([O-])([O-])[O][Zn][O][Cl+3]([O-])([O-])[O-] | 1.7 | 2.9
